{"source": "patent US20170135981A1", "about": "“Method for Suppressing Glucagon Secretion of an SGLT2 Inhibitor” (AstraZeneca AB, priority 2014, published 2017)", "test_system": "glucagon secretion", "assay": "Plasma glucagon during a liquid meal tolerance test (MTT) at week 24, radioimmunoassay, randomized 24-week study", "format": "in vivo, human", "conditions": "summary of Table 1, added to metformin", "experimental": "At the beginning of a 4-week lead-in period, all patients were switched to the nearest metformin XR dose (1,500-2,000 mg/day) for the lead-in period and for the duration of the 24-week treatment period. Patients were then randomized to receive saxagliptin 5 mg/day and dapagliflozin 10 mg/day plus metformin (SAXA+DAPA+MET), saxagliptin 5 mg/day and placebo plus metformin (SAXA+MET), or dapagliflozin 10 mg/day and placebo plus metformin (DAPA+MET) for 24 weeks. Patients were prohibited from receiving other antidiabetic medications (except for open-label rescue medications) during the screening and treatment periods. Postprandial glucose (PPG) was assessed at baseline and week 24 following the administration of a liquid meal tolerance test (MTT, 360-375 kcal; protein, 14-28.2 g; fat, 10.5-14 g; carbohydrates 42-45 g; sugars as a component of carbohydrates, 16.8-22 g, investigation-site dependent). […] The mean change from baseline in the area under the curve from 0 to 180 minutes (AUC0-180 min) was calculated for glucagon obtained during the MTT. Plasma glucagon was measured by radioimmunoassay (LINCO Research, St. Charles, Mo.). AUC0-180 min was calculated based on the trapezoidal rule from model-based estimates of the mean at each time point, including observations prior to rescue. […]"}
{"smiles": "CCOc1ccc(Cc2cc([C@@H]3O[C@H](CO)[C@@H](O)[C@H](O)[C@H]3O)ccc2Cl)cc1", "note": "[dapagliflozin]", "values": [{"measurement": "effect on glucagon levels (in words)", "value": "increased compared to control"}]}
